The values that follow come from ChEMBL document CHEMBL1130555, “Synthesis and biological activity of novel 3-trifluoromethyl taxoids” (Bioorg Med Chem Lett, 1997).

What all share (format): functional, cell-based
In one assay the test system is MCF7. The experiment in a line: Cytotoxicity was evaluated against MCF-7 mammary carcinoma human breast cancer cell line.
A further assay relates to A121. As to the kind of experiment: Cytotoxicity was evaluated against A121 ovarian carcinoma human cancer cell line.
A further assay relates to HT-29. The experiment in a line: Cytotoxicity was evaluated against HT-29 colon carcinoma human cancer cell line.
In another assay the test system is A549. As to the kind of experiment: Cytotoxicity was evaluated against A549 non-small cell lung carcinoma human cancer cell line.
In the next assay the test system is MCF7R. The experiment in a line: Cytotoxicity was evaluated against MCF7-R (mammary carcinoma 180-fold resistant to doxorubicin, expressing MDR phenotype) human breast cancer cell line.

SMILES strings stand for the structures.

As a reminder, the IC50 is the midpoint of a concentration-inhibition curve.

In the case of `CC(=O)O[C@@]12CO[C@@H]1C[C@H](O)[C@@]1(C)C(=O)[C@H](OC(=O)C3CC3)C3=C(C)[C@@H](OC(=O)[C@H](O)[C@@H](NC(=O)OC(C)(C)C)C(F)(F)F)C[C@@](O)([C@@H](OC(=O)c4ccccc4)[C@H]21)C3(C)C`, the IC50 with MCF7 amounted to 0.5 nM; with A121, 0.4 nM; with HT-29, 0.5 nM; in the assay on A549, 0.4 nM; in the assay with MCF7R it was 16 nM.

Take `CC(=O)O[C@@]12CO[C@@H]1C[C@H](O)[C@@]1(C)C(=O)[C@H](OC(=O)N(C)C)C3=C(C)[C@@H](OC(=O)[C@H](O)[C@@H](NC(=O)OC(C)(C)C)C(F)(F)F)C[C@@](O)([C@@H](OC(=O)c4ccccc4)[C@H]21)C3(C)C`: the IC50 in the assay with MCF7 was 0.6 nM; with A121 it was 0.3 nM; in the assay on HT-29 it was 0.4 nM; in the assay on A549, 0.2 nM; in the assay on MCF7R it was 17 nM.

Regarding `CC(=O)O[C@@]12CO[C@@H]1C[C@H](O)[C@@]1(C)C(=O)[C@H](O)C3=C(C)[C@@H](OC(=O)[C@H](O)[C@@H](NC(=O)OC(C)(C)C)C(F)(F)F)C[C@@](O)([C@@H](OC(=O)c4ccccc4)[C@H]21)C3(C)C`, the IC50 was 0.44 nM with MCF7; 1.15 nM with A121; 0.65 nM with HT-29; 0.44 nM in the assay with A549; 156 nM in the assay on MCF7R.

Take `CCCCC(=O)O[C@H]1C(=O)[C@@]2(C)[C@H]([C@H](OC(=O)c3ccccc3)[C@]3(O)C[C@H](OC(=O)[C@H](O)[C@@H](NC(=O)OC(C)(C)C)C(F)(F)F)C(C)=C1C3(C)C)[C@]1(OC(C)=O)CO[C@@H]1C[C@@H]2O`: the IC50 was found to be 0.7 nM with MCF7; 0.7 nM with A121; 1.4 nM in the assay on HT-29; 0.8 nM with A549; 26 nM in the assay on MCF7R.

For `CC(=O)O[C@H]1C(=O)[C@@]2(C)[C@H]([C@H](OC(=O)c3ccccc3)[C@]3(O)C[C@H](OC(=O)[C@H](O)[C@@H](NC(=O)OC(C)(C)C)C(F)(F)F)C(C)=C1C3(C)C)[C@]1(OC(C)=O)CO[C@@H]1C[C@@H]2O`, the half-maximal inhibitory concentration (IC50) worked out at 0.6 nM in the assay on MCF7; 0.3 nM in the assay with A121; 0.4 nM with HT-29; 0.2 nM in the assay on A549; 156 nM in the assay with MCF7R.

With `COC(=O)O[C@H]1C(=O)[C@@]2(C)[C@H]([C@H](OC(=O)c3ccccc3)[C@]3(O)C[C@H](OC(=O)[C@H](O)[C@@H](NC(=O)OC(C)(C)C)C(F)(F)F)C(C)=C1C3(C)C)[C@]1(OC(C)=O)CO[C@@H]1C[C@@H]2O`, the concentration for half-maximal inhibition (IC50) came out at 0.4 nM in the assay with MCF7; 0.3 nM in the assay with A121; 0.4 nM with HT-29; 0.2 nM with A549; 21 nM in the assay with MCF7R.

On to `CC(=O)O[C@@]12CO[C@@H]1C[C@H](O)[C@@]1(C)C(=O)[C@H](OC(=O)CC(C)(C)C)C3=C(C)[C@@H](OC(=O)[C@H](O)[C@@H](NC(=O)OC(C)(C)C)C(F)(F)F)C[C@@](O)([C@@H](OC(=O)c4ccccc4)[C@H]21)C3(C)C`, for which the IC50 is 0.5 nM with MCF7; 0.5 nM in the assay on A121; 0.6 nM in the assay with HT-29; 0.5 nM with A549; 12 nM in the assay on MCF7R.

`CCC(=O)O[C@H]1C(=O)[C@@]2(C)[C@H]([C@H](OC(=O)c3ccccc3)[C@]3(O)C[C@H](OC(=O)[C@H](O)[C@@H](NC(=O)OC(C)(C)C)C(F)(F)F)C(C)=C1C3(C)C)[C@]1(OC(C)=O)CO[C@@H]1C[C@@H]2O`: the IC50 with MCF7 was determined as 0.3 nM; in the assay with A121, 0.3 nM; in the assay with HT-29, 0.4 nM; in the assay with A549, 0.3 nM; with MCF7R, 14 nM.

Regarding `CC(=O)O[C@@]12CO[C@@H]1C[C@H](O)[C@@]1(C)C(=O)[C@H](OC(=O)N3CCOCC3)C3=C(C)[C@@H](OC(=O)[C@H](O)[C@@H](NC(=O)OC(C)(C)C)C(F)(F)F)C[C@@](O)([C@@H](OC(=O)c4ccccc4)[C@H]21)C3(C)C`, the IC50 was found to be 0.4 nM with MCF7; 0.5 nM in the assay with A121; 0.4 nM with HT-29; 0.4 nM in the assay on A549; 48 nM with MCF7R.
